{
  "source": "patent US20210308113A1",
  "about": "“METHOD OF ADMINISTERING A […] EFFECTIVE AMOUNT OF 5-[[4-[2-[5-(1-HYDROXYETHYL)PYRIDIN-2-YL]ETHOXY]PHENYL]METHYL]-1,3-THIAZOLIDINE-2,4-DIONE” (MINORYX THERAPEUTICS S.L., priority 2018, published 2021)",
  "key": {"[1]": {"assay": "Multiple ascending dose (MAD) study, pharmacokinetics in human subjects", "format": "in vivo", "method": "The mean AUC0-tau ss (% CV) (135 μg·h/mL (20)) and Cmaxss (% CV) (9488 ng/ml (17)) was determined at the steady state day 8 in case 135 mgs. The mean AUC0-tau ss (% CV) (299 μg·h/mL (21) and Cmaxss(% CV) (17200 ng/ml (18) was determined at the steady state day 8 in case 270 mgrs.\nAcross all ascending dose studies in humans the increase in dose is linearly related to the increase in AUC. Because of the inter subject variability in clearance it is required to select a start dose which is not excessively above the 200 μg·h/mL target AUCs.\nThe PK data from the MAD study was used to generate a start dose which is most likely no cause toxicity or adverse events in subjects. A dose of 150 mg was chosen as it would give a geometric mean AUCtau of 167 μg·h/mL SD 33 with a 95% confidence interval of 102-232 μg·h/mL. At this dose approximated 75% of patients will be below 200 μg·h/mL and it is unlikely that any patient will exceed 240 μg·h/mL."}, "[2]": {"biological_target": "T1, mitochondrial pyruvate carrier (MPC) (Homo sapiens, UniProt O95563+Q9Y5U8)", "T1 construct": "expressed in transfected cells", "T1 sequence (O95563 1-127)": "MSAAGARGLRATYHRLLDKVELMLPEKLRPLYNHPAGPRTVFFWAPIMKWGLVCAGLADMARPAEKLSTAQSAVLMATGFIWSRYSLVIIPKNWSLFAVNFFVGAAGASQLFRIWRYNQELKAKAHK", "T1 sequence (Q9Y5U8 1-109)": "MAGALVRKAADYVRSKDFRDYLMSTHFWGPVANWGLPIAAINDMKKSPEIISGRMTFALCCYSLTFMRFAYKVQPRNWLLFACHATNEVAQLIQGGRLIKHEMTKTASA", "assay": "BRET assay of MPC inhibitory activity in HEK cells expressing MPC2-Rluc8 and MPC1-Venus", "format": "cell-based", "method": "The MPC is a heterodimer composed of two subunits, MPC1 and MPC2. MPC1 and MPC2 interact to form an active carrier. In the assay, MPC2 was fused to Rluc8 (Donor) and MPC1 to Venus (Acceptor). These chimeric proteins were stably expressed in HEK cells. BRET activity was measured following addition of coelenterazine in the culture medium. Coelenterazine enters into cells and in contact with luciferase Rluc8 emits light, which activates the emission of fluorescence by the Acceptor, provided the distance between the Donor and Acceptor is <[…]. If the distance between Donor and Acceptor is >[…], no BRET activity is measured. The level of BRET activity reflects a change in the conformation of the MPC: it is high when the carrier is in a closed conformation, low when the carrier is at rest and intermediary when it transports pyruvate. In this case, the BRET activity is the mean value between the BRET value when the carrier is at rest (Maximal distance between Donor and Acceptor) and the BRET value when it is closed (Shortest distance between Donor and Acceptor)\nA wide range of concentrations of each of the tested compounds was used from 1 nM to 100 μM."}, "A549 cells": {"system": "A549 cells", "assay": "Seahorse oxygen consumption rate (OCR) in A549 cells", "format": "cell-based", "conditions": "Homo sapiens, 1 h incubation at 37° C.", "method": "(§1) To determine whether Compound (1) HCl has any effect on pyruvate-mediated mitochondrial respiration, the extracellular flux analyzer Seahorse was used as described in Compan et al. Seahorse experiments were performed in the following cell lines: HeLa (Cervix cancer cells), A549 (lung cancer cells), wild type MDA MB 231, and MDA MB 231 in which MPC2 has been deleted, leading to inactivation of the MPC (MDA MB231 KO). MDA MB231 cells are epithelial breast cancer cells. Cells were incubated with increasing concentrations of the compounds for one hour at 37° C. before oxygen consumption rate (OCR) measurements. The Seahorse analyzer allowed to measure basal and maximal respiration measured upon depolarization with 1 μM CCCP. Effects of Compound (1) HCl on oxygen consumption rates (OCR) in HeLa cells (FIG. 3A) and A549 cells (FIG. 3B) in a representative experiment of n=3. OCR values are expressed as ratios of OCR in the presence of different concentrations of compounds over the OCR in PBS alone."}, "HeLa cells": {"system": "HeLa cells", "assay": "Seahorse oxygen consumption rate (OCR) in HeLa cells", "format": "cell-based", "conditions": "Homo sapiens, 1 h incubation at 37° C.", "method": "as §1"}, "[3]": {"system": "MCD diet fed C57BL6/J mice", "assay": "7-week Methionine Choline Deficient (MCD) diet NASH mouse model", "format": "in vivo", "method": "The preventive effects of Compound (1) HCl was evaluated in a 7-week Methionine Choline Deficient (MCD) diet NASH mouse model (Verdelho Machado et al.). After the acclimation period, C57BL6/J male mice (n=20) were weighed and randomized into 2 homogenous treatment groups based on body weight (n=10/group), put on a MCD diet, and treated BID orally with vehicle or Compound (1) HCl for 7 weeks. Compound (1) HCl was dosed 62.5 mg/kg BID orally by gavage. […] Body weight was measured 3 times/week until the end of the experimental phase. At 7 weeks of diet/treatment, mice were weighed and treated at ˜08:00 am in the morning, then bled (maximal volume/EDTA) at […]. Plasma was then immediately isolated and stored at −80° C. prior to assay plasma ALT and AST. The plasma volume left over was stored at −80° C. for eventual additional analysis. After blood collection, the mice were sacrificed by cervical dislocation under isoflurane anesthesia and exsanguinated with sterile saline. A NAFLD scoring system (NAS) adapted from Kleiner et al. (Hepatology. 41(6):1313-1321 (2005)) using the criteria described in the Table 2 below: Several other histopathological observations described in clinical human cases and originally reported in the NAS scoring system published by Kleiner et al. were not observed in this animal study, such as lipogranuloma, acidophil bodies, megamitochondria, and pigmented macrophages. Therefore, it was elected not to include them in the scoring system described above. An individual mouse NAS total score was calculated for each animal by summing up the score for (1) hepatocellular steatosis, (2) liver inflammation, (3) lobular fibrosis, and (4) hepatocyte ballooning. Histology analysis was performed (oil red 0, H&E and Sirius Red staining) for NAFLD scoring system (NAS) for liver steatosis, inflammation, fibrosis and hepatocyte ballooning."}, "MDA MB231 KO cells": {"system": "MDA MB231 KO cells", "assay": "Seahorse oxygen consumption rate (OCR) in MDA MB231 KO cells (MPC2 deleted)", "format": "cell-based", "conditions": "MPC activity genetically deleted", "method": "as §1, with “CCCP. […] The KO cells have been deleted” for “CCCP. Effects”, “of the MPC2 gene” for “of Compound (1) HCl on oxygen consumption rates (OCR) in HeLa cells (FIG. 3A)”, “and therefore they display no MPC activity. The top panel show” for “and A549 cells (FIG. 3B) in”, “of either wild type (WT) or KO cell lines. […]” for “of n=3.”, “of the tested compound” for “of compounds”"}, "[4]": {"system": "wild type MDA MB231 cells", "assay": "Seahorse oxygen consumption rate (OCR) in wild type MDA MB231 cells", "format": "cell-based", "method": "as §1, with “CCCP. […] The KO cells have been deleted” for “CCCP. Effects”, “of the MPC2 gene” for “of Compound (1) HCl on oxygen consumption rates (OCR) in HeLa cells (FIG. 3A)”, “and therefore they display no MPC activity. The top panel show” for “and A549 cells (FIG. 3B) in”, “of either wild type (WT) or KO cell lines. […]” for “of n=3.”, “of the tested compound” for “of compounds”"}, "adiponectin": {"system": "adiponectin", "assay": "Plasma adiponectin by ELISA in Sprague Dawley rats as a measure of PPAR gamma engagement", "format": "in vivo, rat", "conditions": "7 days, 54 mg/Kg/day, plasma 1 h after last administration, vs vehicle p<0.0001", "method": "Evaluation of effect of Compound (1) HCl on adiponectin was performed in Sprague Dawley wild type rats as a measure of PPAR gamma engagement. The rats were treated for 7 days with increasing doses of Compound (1) HCl at 54 mg/Kg/day. Plasma were obtained at 1 h after the last Compound (1) HCl administration. Adiponectin levels were measured by ELISA. Results were represented as mean+standard error of the mean of n=8. Data were analyzed by Kruskal-Wallis followed by the Dunn post-hoc test versus the vehicle group (****, p<0.0001)."}},
  "note": "Where two headings read alike, the source gives them in different places.",
  "data": [
    {"smiles": "CC(O)c1ccc(CCOc2ccc(CC3SC(=O)NC3=O)cc2)nc1", "note": "(stereo not drawn) [Compound (1), 5-[[4-[2-[5-(1-hydroxyethyl)pyridin-2-yl]ethoxy]phenyl]methyl]-1,3-thiazolidine-2,4-dione]", "values": [
      {"measurement": "linearity of pharmacokinetics", "setting": "[1]; humans", "value": "linear pharmacokinetics"},
      {"measurement": "oral bioavailability", "setting": "[1]; humans", "value": "orally bioavailable"}
    ]},
    {"smiles": "CN(CCOc1ccc(CC2SC(=O)NC2=O)cc1)c1ccccn1", "note": "(stereo not drawn) [Rosiglitazone, rosiglitazone, reference compound]", "values": [
      {"measurement": "IC50", "setting": "[2]", "value": 2, "unit": "µM"}
    ]},
    {"smiles": "CC(O)c1ccc(CCOc2ccc(CC3SC(=O)NC3=O)cc2)nc1.Cl", "note": "(stereo not drawn) [Compound (1) HCl, 5-[[4-[2-[5-(1-hydroxyethyl)pyridin-2-yl]ethoxy]phenyl]methyl]-1,3-thiazolidine-2,4-dione hydrochloride]", "values": [
      {"measurement": "IC50", "setting": "A549 cells", "value": "~5", "unit": "µM"},
      {"measurement": "IC50", "setting": "[2]; BRET assay, HEK cells, read-out: IC50 MPC inhibitory activity", "value": 4.1, "unit": "µM"},
      {"measurement": "IC50", "setting": "HeLa cells", "value": "~5", "unit": "µM"},
      {"measurement": "hepatic cholesterol levels", "setting": "[3]; 62.5 mg/kg BID orally, 7 weeks", "value": "did not show a change"},
      {"measurement": "body weight loss", "setting": "[3]; 62.5 mg/kg BID orally, day 14 to day 50", "value": "less severe decline in body weight loss"},
      {"measurement": "liver inflammation", "setting": "[3]; 7 weeks", "value": "total disappearance of inflammation"},
      {"measurement": "oil red o staining %", "setting": "[3]; 7 weeks, vs vehicle p<0.001", "value": "extremely low"},
      {"measurement": "steatosis score", "setting": "[3]; 7 weeks, vs vehicle p<0.001", "value": "blunted steatosis score"},
      {"measurement": "effect on oxygen consumption", "setting": "MDA MB231 KO cells", "value": "does not inhibit oxygen consumption"},
      {"measurement": "change in clearance with time", "setting": "[1]; human subjects, 135 mg and 270 mg", "value": "no change in clearance with time"},
      {"measurement": "mean Cmaxss", "setting": "[1]; human subjects, 135 mg, steady state day 8", "value": 9.488, "unit": "µg/mL"},
      {"measurement": "mean Cmaxss", "setting": "[1]; human subjects, 270 mg, steady state day 8", "value": 17.2, "unit": "µg/mL"},
      {"measurement": "AUC", "setting": "[1]; human, plasma, oral, start dose 150 mg, generated from MAD PK data, SD 33, 95% CI 102-232, read-out: geometric mean AUCtau", "value": 167, "unit": "µg·h/mL"},
      {"measurement": "AUC", "setting": "[1]; in vivo, human subjects, 135 mg, steady state day 8, read-out: mean AUC0-tau ss", "value": 135, "unit": "µg·h/mL"},
      {"measurement": "AUC", "setting": "[1]; in vivo, human subjects, 270 mg, steady state day 8, read-out: mean AUC0-tau ss", "value": 299, "unit": "µg·h/mL"},
      {"measurement": "Cmin ss associated with the target AUC0-tau ss", "setting": "[1]; line of best fit of day 8 MAD data, target AUC0-tau ss 200 μg·h/mL", "value": 5.716, "unit": "µg/mL"},
      {"measurement": "effect on oxygen consumption", "setting": "[4]", "value": "inhibits oxygen consumption in a MPC dependent manner"},
      {"measurement": "plasma adiponectin levels", "setting": "adiponectin", "value": "significantly increased"}
    ]}
  ]
}
